Source: ChEMBL document CHEMBL3526109 (Drug Metab Dispos, 2011)
Blank lines part the entries; values can stand above or below the molecule they belong to.

Tests used:
Plasma [1] = test: Drug level in human plasma assessed as compound formation treated with [14C]brivanib alaninate at 800 mg, po administered as single dose via gavage measured after 12 hrs by HPLC analysis; type: ADME, organism-based; settings: in vivo
[2] = Drug excretion in bile duct-cannulated cynomolgus monkey bile treated with [14C]brivanib alaninate at 10 mg/kg, po administered as single dose via gavage by HPLC analysis; type: ADME, organism-based, Macaca fascicularis; settings: in vivo
[3] = Drug excretion in Sprague-Dawley rat feces treated with [14C]brivanib alaninate at 100 mg/kg, po administered as single dose via gavage by HPLC analysis; type: ADME, organism-based; settings: in vivo
Plasma [4] = test: Drug level in human plasma assessed as compound formation treated with [14C]brivanib alaninate at 800 mg, po administered as single dose via gavage measured after 8 hrs by HPLC analysis; type: ADME, organism-based; settings: in vivo
Plasma [5] = test: Drug level in human plasma assessed as compound formation treated with [14C]brivanib alaninate at 800 mg, po administered as single dose via gavage measured after 1 hr by HPLC analysis; type: ADME, organism-based; settings: in vivo
[6] = Drug excretion in cynomolgus monkey urine treated with [14C]brivanib alaninate at 10 mg/kg, po administered as single dose via gavage by HPLC analysis; type: ADME, organism-based, Macaca fascicularis; settings: in vivo
Plasma [7] = test: Drug level in cynomolgus monkey plasma assessed as compound formation treated with [14C]brivanib alaninate at 10 mg/kg, po administered as single dose via gavage measured after 6 hrs by HPLC analysis; type: ADME, organism-based, Macaca fascicularis; settings: in vivo
[8] = Drug excretion in cynomolgus monkey feces treated with [14C]brivanib alaninate at 10 mg/kg, po administered as single dose via gavage by HPLC analysis; type: ADME, organism-based, Macaca fascicularis; settings: in vivo
Plasma [9] = test: Drug level in cynomolgus monkey plasma assessed as compound formation treated with [14C]brivanib alaninate at 10 mg/kg, po administered as single dose via gavage measured after 2 hrs by HPLC analysis; type: ADME, organism-based, Macaca fascicularis; settings: in vivo
Plasma [10] = test: Drug level in cynomolgus monkey plasma assessed as compound formation treated with [14C]brivanib alaninate at 10 mg/kg, po administered as single dose via gavage measured after 1 hr by HPLC analysis; type: ADME, organism-based, Macaca fascicularis; settings: in vivo
Plasma [11] = test: Drug level in Sprague-Dawley rat plasma assessed as compound formation treated with [14C]brivanib alaninate at 100 mg/kg, po administered as single dose via gavage measured after 1 hr by mass spectrometry; type: ADME, organism-based; settings: in vivo
Plasma [12] = test: Drug level in cynomolgus monkey plasma assessed as compound formation treated with [14C]brivanib alaninate at 10 mg/kg, po administered as single dose via gavage measured after 4 hrs by HPLC analysis; type: ADME, organism-based, Macaca fascicularis; settings: in vivo
[13] = Drug excretion in Sprague-Dawley rat urine treated with [14C]brivanib alaninate at 100 mg/kg, po administered as single dose via gavage by HPLC analysis; type: ADME, organism-based; settings: in vivo
Plasma [14] = test: Drug level in Sprague-Dawley rat plasma assessed as compound formation treated with [14C]brivanib alaninate at 100 mg/kg, po administered as single dose via gavage measured after 2 hrs by mass spectrometry; type: ADME, organism-based; settings: in vivo
[15] = Drug level in bile duct-cannulated rat bile treated with [14C]brivanib alaninate at 100 mg/kg, po administered as single dose via gavage by mass spectrometry; type: ADME, organism-based; settings: in vivo
Plasma [16] = test: Drug level in human plasma assessed as compound formation treated with [14C]brivanib alaninate at 800 mg, po administered as single dose via gavage measured after 4 hrs by HPLC analysis; type: ADME, organism-based; settings: in vivo
[17] = Drug excretion in human feces treated with [14C]brivanib alaninate at 800 mg, po administered as single dose […] by HPLC analysis; type: ADME, organism-based; settings: in vivo
Plasma [18] = test: Drug level in Sprague-Dawley rat plasma assessed as compound formation treated with [14C]brivanib alaninate at 100 mg/kg, po administered as single dose via gavage measured after 6 hrs by mass spectrometry; type: ADME, organism-based; settings: in vivo
Plasma [19] = test: Drug level in human plasma assessed as compound formation treated with [14C]brivanib alaninate at 800 mg, po administered as single dose via gavage measured after 2 hrs by HPLC analysis; type: ADME, organism-based; settings: in vivo
[20] = Drug excretion in human urine treated with [14C]brivanib alaninate at 800 mg, po administered as single dose […] by HPLC analysis; type: ADME, organism-based; settings: in vivo
Plasma [21] = test: Drug level in cynomolgus monkey plasma assessed as compound formation treated with [14C]brivanib alaninate at 10 mg/kg, po administered as single dose via gavage measured after 12 hrs by HPLC analysis; type: ADME, organism-based, Macaca fascicularis; settings: in vivo
[22] = molecular target: Vascular endothelial growth factor receptor 2 (Homo sapiens, UniProt P35968); test: Inhibition of human recombinant VEGFR-2
Vascular endothelial growth factor receptor 2, sequence (P35968 whole entry): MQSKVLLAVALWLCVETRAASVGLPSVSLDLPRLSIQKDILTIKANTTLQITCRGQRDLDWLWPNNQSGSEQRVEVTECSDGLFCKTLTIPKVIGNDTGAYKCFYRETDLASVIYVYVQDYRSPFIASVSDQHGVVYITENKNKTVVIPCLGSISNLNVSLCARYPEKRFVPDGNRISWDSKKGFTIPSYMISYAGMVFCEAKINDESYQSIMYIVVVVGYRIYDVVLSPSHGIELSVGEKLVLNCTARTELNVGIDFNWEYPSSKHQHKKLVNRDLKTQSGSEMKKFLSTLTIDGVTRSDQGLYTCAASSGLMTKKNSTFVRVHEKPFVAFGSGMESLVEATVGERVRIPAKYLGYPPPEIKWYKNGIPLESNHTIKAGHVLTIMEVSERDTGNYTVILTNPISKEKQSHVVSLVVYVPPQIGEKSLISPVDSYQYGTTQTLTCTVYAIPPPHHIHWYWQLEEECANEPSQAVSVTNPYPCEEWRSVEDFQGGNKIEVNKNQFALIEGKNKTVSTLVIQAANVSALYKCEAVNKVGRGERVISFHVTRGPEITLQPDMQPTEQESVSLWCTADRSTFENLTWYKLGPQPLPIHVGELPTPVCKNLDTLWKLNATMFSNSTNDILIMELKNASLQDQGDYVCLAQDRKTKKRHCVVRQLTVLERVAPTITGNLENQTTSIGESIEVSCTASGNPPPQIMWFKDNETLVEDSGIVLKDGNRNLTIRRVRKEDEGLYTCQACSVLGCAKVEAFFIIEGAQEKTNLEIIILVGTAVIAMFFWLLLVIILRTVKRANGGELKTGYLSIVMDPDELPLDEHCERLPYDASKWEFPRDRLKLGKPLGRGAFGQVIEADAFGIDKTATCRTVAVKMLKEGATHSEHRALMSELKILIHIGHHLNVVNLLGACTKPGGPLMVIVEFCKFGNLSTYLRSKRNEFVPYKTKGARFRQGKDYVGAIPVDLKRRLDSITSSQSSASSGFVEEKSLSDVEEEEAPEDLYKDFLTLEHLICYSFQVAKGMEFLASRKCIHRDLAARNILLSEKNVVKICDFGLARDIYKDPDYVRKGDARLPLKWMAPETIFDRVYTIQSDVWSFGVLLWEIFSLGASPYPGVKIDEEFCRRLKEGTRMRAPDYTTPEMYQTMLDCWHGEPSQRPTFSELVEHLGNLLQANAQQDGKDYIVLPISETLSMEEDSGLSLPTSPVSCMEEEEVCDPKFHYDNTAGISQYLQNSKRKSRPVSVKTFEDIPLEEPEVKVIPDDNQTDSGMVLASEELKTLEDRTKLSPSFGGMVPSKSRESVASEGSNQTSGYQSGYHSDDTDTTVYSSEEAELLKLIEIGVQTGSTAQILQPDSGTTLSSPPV

Plasma [23] = test: Drug level in Sprague-Dawley rat plasma assessed as compound formation treated with [14C]brivanib alaninate at 100 mg/kg, po administered as single dose via gavage measured after 1 hr by HPLC analysis; type: ADME, organism-based; settings: in vivo
Plasma [24] = test: Drug level in Sprague-Dawley rat plasma assessed as compound formation treated with [14C]brivanib alaninate at 100 mg/kg, po administered as single dose via gavage measured after 2 hrs by HPLC analysis; type: ADME, organism-based; settings: in vivo
Liver microsome = test: Drug level in human liver microsomes treated with brivanib by LC-MS/MS analysis in presence of NADPH; type: ADME
Plasma [25] = test: Drug level in cynomolgus monkey plasma assessed as compound formation treated with [14C]brivanib alaninate at 10 mg/kg, po administered as single dose via gavage measured after 2 hrs by mass spectrometry; type: ADME, organism-based, Macaca fascicularis; settings: in vivo
Plasma [26] = test: Drug level in cynomolgus monkey plasma assessed as compound formation treated with [14C]brivanib alaninate at 10 mg/kg, po administered as single dose via gavage measured after 1 hr by mass spectrometry; type: ADME, organism-based, Macaca fascicularis; settings: in vivo
Plasma [27] = test: Drug level in Sprague-Dawley rat plasma assessed as compound formation treated with [14C]brivanib alaninate at 100 mg/kg, po administered as single dose via gavage measured after 6 hrs by HPLC analysis; type: ADME, organism-based; settings: in vivo
[28] = molecular target: Fibroblast growth factor receptor 1 (Homo sapiens, UniProt P11362); test: Inhibition of human recombinant FGFR-1
Fibroblast growth factor receptor 1, sequence (P11362 whole entry): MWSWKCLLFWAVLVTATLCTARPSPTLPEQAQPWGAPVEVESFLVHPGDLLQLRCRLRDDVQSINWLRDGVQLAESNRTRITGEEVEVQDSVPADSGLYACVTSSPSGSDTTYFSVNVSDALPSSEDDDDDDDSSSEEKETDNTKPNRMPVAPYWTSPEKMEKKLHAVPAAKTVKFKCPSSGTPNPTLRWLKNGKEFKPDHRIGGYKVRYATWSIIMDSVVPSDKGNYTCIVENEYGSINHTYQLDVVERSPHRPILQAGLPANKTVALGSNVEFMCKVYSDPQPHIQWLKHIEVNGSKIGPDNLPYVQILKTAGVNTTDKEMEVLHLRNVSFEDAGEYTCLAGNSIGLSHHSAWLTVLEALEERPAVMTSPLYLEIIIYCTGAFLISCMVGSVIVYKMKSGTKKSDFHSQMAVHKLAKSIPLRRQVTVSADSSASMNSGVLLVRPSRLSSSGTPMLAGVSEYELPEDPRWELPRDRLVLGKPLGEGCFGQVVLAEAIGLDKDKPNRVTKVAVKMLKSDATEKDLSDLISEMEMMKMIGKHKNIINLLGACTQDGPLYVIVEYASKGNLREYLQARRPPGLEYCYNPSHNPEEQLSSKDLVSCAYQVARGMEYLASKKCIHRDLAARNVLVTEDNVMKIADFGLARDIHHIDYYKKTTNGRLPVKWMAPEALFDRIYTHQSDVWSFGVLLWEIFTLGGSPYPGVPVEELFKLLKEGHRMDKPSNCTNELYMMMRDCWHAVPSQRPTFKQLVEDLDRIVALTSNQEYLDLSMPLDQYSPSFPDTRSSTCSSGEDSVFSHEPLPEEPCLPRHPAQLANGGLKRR

Plasma [29] = test: Drug level in cynomolgus monkey plasma assessed as compound formation treated with [14C]brivanib alaninate at 10 mg/kg, po administered as single dose via gavage measured after 4 hrs by mass spectrometry; type: ADME, organism-based, Macaca fascicularis; settings: in vivo

Compound recovery (Plasma [1]): metabolite_not_detected
Compound recovery [2]: 0.6%
Compound recovery [3]: metabolite_not_detected
Compound recovery (Plasma [4]): metabolite_not_detected
Compound recovery (Plasma [5]): 2.6%
Compound recovery [6]: 0.3%
Compound recovery (Plasma [7]): 0.9%
Compound recovery [8]: metabolite_not_detected
Compound recovery (Plasma [9]): 2.2%
Compound recovery (Plasma [10]): 7.2%
Compound recovery (Plasma [11]): metabolite_detected
Compound recovery (Plasma [12]): 1.9%
Compound recovery [13]: metabolite_not_detected
Compound recovery (Plasma [14]): metabolite_detected
Compound recovery [15]: metabolite_detected
Compound recovery (Plasma [16]): metabolite_not_detected
Compound recovery [17]: metabolite_not_detected
Compound recovery (Plasma [18]): metabolite_detected
Compound recovery (Plasma [19]): 2.3%
Compound recovery [20]: 1.1%
Compound recovery (Plasma [21]): metabolite_not_detected
Compound: Cc1cc2c(F)c(Oc3ncnn4cc(OC[C@@H](C)O[C@@H]5O[C@H](C(=O)O)[C@@H](O)[C@H](O)[C@H]5O)c(C)c34)ccc2[nH]1

Compound recovery (Plasma [1]): metabolite_not_detected
IC50 [22]: 78 nM
Compound recovery (Plasma [4]): metabolite_not_detected
Compound recovery (Plasma [23]): 1.5%
Compound recovery (Plasma [5]): metabolite_not_detected
Compound recovery (Plasma [7]): metabolite_not_detected
Compound recovery (Plasma [24]): 1.2%
Compound recovery (Liver microsome): metabolite_detected
Compound recovery (Plasma [25]): metabolite_detected
Compound recovery (Plasma [16]): metabolite_not_detected
Compound recovery (Plasma [19]): metabolite_not_detected
Compound recovery (Plasma [26]): metabolite_detected
Compound recovery (Plasma [27]): 1.1%
IC50 [28]: 760 nM
Compound recovery (Plasma [21]): metabolite_not_detected
Compound recovery (Plasma [29]): metabolite_detected
Compound: Cc1c(OC[C@@H](C)O)cn2ncnc(Oc3ccc4[nH]c(CO)cc4c3F)c12
